In patent US8129368B2, “5,6-dihydro-1H-pyridin-2-one compounds” (priority 2008, dated 2012) one finds EC50 data, which are given here for 19 compounds.

The assay has as its system HCV Huh-luc/neo-ET replicon cells. As to the kind of experiment: Luciferase-Based HCV Replicon Assay (EC50 (1b)). It counts as cell-based. As to conditions: Hepatitis C virus. Here is the method:
Luciferase-Based HCV Replicon Assay Protocol (EC50 (1b))
The cell culture component of the assay is performed essentially as described by Bartenschlager et al., Hepatology 2002, 35, 694-703, wherein exponentially growing HCV Huh-luc/neo-ET replicon cells were seeded at 6×10^3 cells/well in 96 well assay plate. 24 hours later the cells were treated with various concentrations of compound or combination of compounds in triplicate using both fixed ratios and checkerboard matrices of test agents and cultured for 72 hours. The luciferase activity in the wells was determined using Bright-Glo reagent (Promega, Madison, Wis.) with a luminometer (Wallac 1420 Multilabel HTS Counter Victor 2). The background control was replicon cells treated with 100 nM BILN-2061, an inhibitor of the HCV protease. % Inhibition was determined for each compound concentration in relation to the negative (no compound) control to calculate the EC50(1b).

Setting [1] is: HCV Huh-luc/neo-ET replicon cells, 72 hours, luciferase activity, read-out: EC50 (1b).
Setting [2] is: HCV Huh-luc/neo-ET replicon cells, 72 hours, luciferase activity, read-out: EC50(1b) concentration.
The mark [3] stands for this setting: Huh-luc/neo-ET, 72 h, read-out: EC50 (1b).
Where [4] appears, read: Huh-luc/neo-ET, 72 h, read-out: EC50(1b) concentration.

Where two headings read alike, the source gives them in different places.

In the case of `CS(=O)(=O)Nc1ccc2c(c1)S(=O)(=O)NC(C1=C(O)C3C4CC(C5CC54)C3N(Cc3ccc(F)cc3)C1=O)=N2` (racemic) [Example 13, (rac-di-exo,di-exo)-N-{3-[3-(4-Fluoro-benzyl)-6-hydroxy-4-oxo-3-aza-tetracyclo[6.3.1.0^2,7.0^9,11]dodec-5-en-5-yl]-1,1-dioxo-1,2-dihydro-1λ^6-benzo[1,2,4]thiadiazin-7-yl}-methanesulfonamide], the EC50 was below 5 nM under setting [1] and below 25 nM under setting [2].
The corresponding values for `CS(=O)(=O)Nc1ccc2c(c1)S(=O)(=O)N=C(C1=C(O)[C@@H]3[C@H]4CC[C@H](C4)[C@@H]3N(Cc3ccc(F)cc3Cl)C1=O)N2` [Example 1, (1R,2S,7R,8S)—N-{3-[3-(2-Chloro-4-fluoro-benzyl)-6-hydroxy-4-oxo-3-aza-tricyclo[6.2.1.0^2,7]undec-5-en-5-yl]-1,1-dioxo-1,4-dihydro-1λ^6-benzo[1,2,4]thiadiazin-7-yl}-methanesulfonamide] are below 5 nM and below 25 nM.
`CS(=O)(=O)Nc1ccc2c(c1)S(=O)(=O)N=C(C1=C(O)C3C4CCC(C4)C3N(Cc3ccc(F)c(Cl)c3)C1=O)N2` [Example 2, N-{3-[(1S,2S,7R,8R)-3-(Chloro-4-fluoro-benzyl)-6-hydroxy-4-oxo-3-aza-tricyclo[6.2.1.0^2,7]undec-5-en-5-yl]-1,1-dioxo-1,4-dihydro-1λ^6-benzo[1,2,4]thiadiazin-7-yl}-methanesulfonamide]: the EC50 was below 5 nM under setting [3] and below 25 nM under setting [4].
On to `COc1cccc(CN2C(=O)C(C3=NS(=O)(=O)c4cc(NS(C)(=O)=O)ccc4N3)=C(O)[C@@H]3C4CCC(CC4)[C@@H]32)c1` [Example 3, N-{3-[(2S,7R)-6-Hydroxy-3-(3-methoxy-benzyl)-4-oxo-3-aza-tricyclo[6.2.2.0^2,7]dodec-5-en-5-yl]-1,1-dioxo-1,4-dihydro-1λ^6-benzo[1,2,4]thiadiazin-7-yl}-methanesulfonamide], for which the EC50 is, setting by setting: under setting [1], below 5 nM; under setting [2], below 25 nM.
Taken in the same sequence, the figures for `CS(=O)(=O)Nc1ccc2c(c1)S(=O)(=O)N=C(C1=C(O)[C@@H]3C4CCC(CC4)[C@@H]3N(Cc3ccc(F)cc3F)C1=O)N2` [Example 4, N-{3-[(2S,7R)-3-(2,4-Difluoro-benzyl)-6-hydroxy-4-oxo-3-aza-tricyclo[6.2.2.0^2,7]dodec-5-en-5-yl]-1,1-dioxo-1,4-dihydro-1λ^6-benzo[1,2,4]thiadiazin-7-yl}-methanesulfonamide] were below 5 nM and below 25 nM.
For `CS(=O)(=O)Nc1ccc2c(c1)S(=O)(=O)N=C(C1=C(O)[C@@H]3C4CCC(CC4)[C@@H]3N(Cc3ccc(F)cc3Cl)C1=O)N2` [Example 5, N-{3-[(2S,7R)-3-(2-Chloro-4-fluoro-benzyl)-6-hydroxy-4-oxo-3-aza-tricyclo[6.2.2.0^2,7]dodec-5-en-5-yl]-1,1-dioxo-1,4-dihydro-1λ^6-benzo[1,2,4]thiadiazin-7-yl}-methanesulfonamide], the EC50 by setting is: under setting [1], 5 to 25 nM; under setting [2], below 25 nM.
Taken in the same sequence, the figures for `CS(=O)(=O)Nc1ccc2c(c1)S(=O)(=O)N=C(C1=C(O)[C@@H]3C4CCC(CC4)[C@@H]3N(Cc3ccccc3Br)C1=O)N2` [Example 6, N-{3-[(2S,7R)-3-(2-Bromo-benzyl)-6-hydroxy-4-oxo-3-aza-tricyclo[6.2.2.0^2,7]dodec-5-en-5-yl]-1,1-dioxo-1,4-dihydro-1λ^6-benzo[1,2,4]thiadiazin-7-yl}-methanesulfonamide] were below 5 nM and below 25 nM.
The corresponding values for `COc1cc(CN2C(=O)C(C3=NS(=O)(=O)c4cc(NS(C)(=O)=O)ccc4N3)=C(O)[C@@H]3C4CCC(CC4)[C@@H]32)ccc1F` [Example 7, N-{3-[(2S,7R)-3-(4-Fluoro-3-methoxy-benzyl)-6-hydroxy-4-oxo-3-aza-tricyclo[6.2.2.0^2,7]dodec-5-en-5-yl]-1,1-dioxo-1,4-dihydro-1λ^6-benzo[1,2,4]thiadiazin-7-yl}-methanesulfonamide] are below 5 nM and below 25 nM.
The corresponding values for `CS(=O)(=O)Nc1ccc2c(c1)S(=O)(=O)N=C(C1=C(O)[C@@H]3C4CCC(CC4)[C@@H]3N(Cc3ccc(F)c(Cl)c3)C1=O)N2` [Example 8, N-{3-[(2S,7R)-3-(3-Chloro-4-fluoro-benzyl)-6-hydroxy-4-oxo-3-aza-tricyclo[6.2.2.0^2,7]dodec-5-en-5-yl]-1,1-dioxo-1,4-dihydro-1λ^6-benzo[1,2,4]thiadiazin-7-yl}-methanesulfonamide] are below 5 nM and below 25 nM.
As for `CC(C)(C)CCN1C(=O)C(C2=NS(=O)(=O)c3cc(NS(C)(=O)=O)ccc3N2)=C(O)[C@@H]2C3CCC(CC3)[C@@H]21` [Example 9, N-{3-[(2S,7R)-3-(3,3-Dimethyl-butyl)-6-hydroxy-4-oxo-3-aza-tricyclo[6.2.2.0^2,7]dodec-5-en-5-yl]-1,1-dioxo-1,4-dihydro-1λ^6-benzo[1,2,4]thiadiazin-7-yl}-methanesulfonamide], the EC50 under setting [1] was below 5 nM and the EC50 under setting [2] was below 25 nM.
The corresponding values for `CS(=O)(=O)Nc1ccc2c(c1)S(=O)(=O)N=C(C1=C(O)[C@@H]3C4CCC(CC4)[C@@H]3N(Cc3ccc(F)c(F)c3)C1=O)N2` [Example 10, N-{3-[(2S,7R)-3-(3,4-Difluoro-benzyl)-6-hydroxy-4-oxo-3-aza-tricyclo[6.2.2.0^2,7]dodec-5-en-5-yl]-1,1-dioxo-1,4-dihydro-1λ^6-benzo[1,2,4]thiadiazin-7-yl}-methanesulfonamide] are below 5 nM and below 25 nM.
Taken in the same sequence, the figures for `Cc1cc(CN2C(=O)C(C3=NS(=O)(=O)c4cc(NS(C)(=O)=O)ccc4N3)=C(O)[C@@H]3C4CCC(CC4)[C@@H]32)ccc1F` [Example 11, N-{3-[(2S,7R)-3-(4-Fluoro-3-methyl-benzyl)-6-hydroxy-4-oxo-3-aza-tricyclo[6.2.2.0^2,7]dodec-5-en-5-yl]-1,1-dioxo-1,4-dihydro-1λ^6-benzo[1,2,4]thiadiazin-7-yl}-methanesulfonamide] were below 5 nM and below 25 nM.
The corresponding values for `CS(=O)(=O)Nc1ccc2c(c1)S(=O)(=O)NC(C1=C(O)[C@@H]3C4CCC(CC4)[C@@H]3N(Cc3ccccc3)C1=O)=N2` [Example 12, N-{3-[(2S,7R)-3-Benzyl-6-hydroxy-4-oxo-3-aza-tricyclo[6.2.2.0^2,7]dodec-5-en-5-yl]-1,1-dioxo-1,2-dihydro-1λ^6-benzo[1,2,4]thiadiazin-7-yl}-methanesulfonamide] are below 5 nM and below 25 nM.
With `CS(=O)(=O)Nc1ccc2c(c1)S(=O)(=O)NC(C1=C(O)[C@@H]3C4CCC(CC4)[C@@H]3N(Cc3cccc(F)c3)C1=O)=N2` [Example 14, N-{3-[(2S,7R)-3-(3-Fluoro-benzyl)-6-hydroxy-4-oxo-3-aza-tricyclo[6.2.2.0^2,7]dodec-5-en-5-yl]-1,1-dioxo-1,2-dihydro-1λ^6-benzo[1,2,4]thiadiazin-7-yl}-methanesulfonamide], the EC50 under setting [1] was below 5 nM and the EC50 under setting [2] is below 25 nM.
Taken in the same sequence, the figures for `CS(=O)(=O)Nc1ccc2c(c1)S(=O)(=O)NC(C1=C(O)[C@@H]3C4CCC(CC4)[C@@H]3N(CC3CCCCC3)C1=O)=N2` [Example 15, N-{3-[(2S,7R)-3-Cyclohexylmethyl-6-hydroxy-4-oxo-3-aza-tricyclo[6.2.2.0^2,7]dodec-5-en-5-yl]-1,1-dioxo-1,2-dihydro-1λ^6-benzo[1,2,4]thiadiazin-7-yl}-methanesulfonamide] were 5 to 25 nM and below 25 nM.
As for `CS(=O)(=O)Nc1ccc2c(c1)S(=O)(=O)NC(C1=C(O)[C@@H]3C4CCC(CC4)[C@@H]3N(Cc3cccs3)C1=O)=N2` [Example 16, N-{3-[(2S,7R)-6-Hydroxy-4-oxo-3-thiophen-2-ylmethyl-3-aza-tricyclo[6.2.2.0^2,7]dodec-5-en-5-yl]-1,1-dioxo-1,2-dihydro-1λ^6-benzo[1,2,4]thiadiazin-7-yl}-methanesulfonamide], the EC50 was 5 to 25 nM under setting [1] and below 25 nM under setting [2].
As for `Cc1ccccc1CN1C(=O)C(C2=Nc3ccc(NS(C)(=O)=O)cc3S(=O)(=O)N2)=C(O)[C@@H]2C3CCC(CC3)[C@@H]21` [Example 17, N-{3-[(2S,7R)-6-Hydroxy-3-(2-methyl-benzyl)-4-oxo-3-aza-tricyclo[6.2.2.0^2,7]dodec-5-en-5-yl]-1,1-dioxo-1,2-dihydro-1λ^6-benzo[1,2,4]thiadiazin-7-yl}-methanesulfonamide], the EC50 by setting is: under setting [1], 5 to 25 nM; under setting [2], below 25 nM.
For the compound `CS(=O)(=O)Nc1ccc2c(c1)S(=O)(=O)NC(C1=C(O)[C@@H]3C4CCC(CC4)[C@@H]3N(Cc3ccc(F)c(F)c3F)C1=O)=N2` [Example 18, N-{3-[(2S,7R)-6-Hydroxy-4-oxo-3-(2,3,4-trifluoro-benzyl)-3-aza-tricyclo[6.2.2.0^2,7]dodec-5-en-5-yl]-1,1-dioxo-1,2-dihydro-1λ^6-benzo[1,2,4]thiadiazin-7-yl}-methanesulfonamide], the EC50 is, setting by setting: under setting [1], 5 to 25 nM; under setting [2], below 25 nM.
As to `CS(=O)(=O)Nc1ccc2c(c1)S(=O)(=O)NC(C1=C(O)[C@@H]3[C@@H]4CC[C@@H](C4)[C@@H]3N(Cc3ccccc3)C1=O)=N2` [Example 20], the EC50 is 5 to 25 nM under setting [3] and below 25 nM under setting [4].
